From US8247211B2, “Glycopeptide antibiotics” (American Cyanamid Company, priority 2001, dated 2012)
In brackets after ≈: the same amount, converted by molar mass. One block for each molecule: values may come before it.

Tests used:
Assay in all cases: In vitro antibacterial evaluation: minimum inhibitory concentration (MIC), broth dilution method
Type in all cases: cell-based
Staphylococcus sp. = conditions: for MIC Staphylococcus aureus (ATCC 29213): strain ATCC 29213; for MIC Staphylococcus aureus (GC 1131): strain GC 1131; for MIC Staphylococcus aureus (GC 3051): strain GC 3051; for MIC Staphylococcus aureus (GC 3053): strain GC 3053; for MIC Staphylococcus aureus (GC 4541): strain GC 4541; for MIC Staphylococcus aureus (GC 4542): strain GC 4542; for MIC Staphylococcus aureus (GC 4544): strain GC 4544; for MIC Staphylococcus aureus (GC 4545): strain GC 4545
Description: (§1) The minimum inhibitory concentration (MIC), the lowest concentration of the antibiotic which inhibits growth of the test organism, is determined by the broth dilution method using Muller-Hinton II […] (Baltimore Biological Laboratories) following the recommendations of the National Committee for Clinical Laboratory Standards [Methods for dilution antimicrobial susceptibility tests for bacteria that grow aerobically, approved standard M7-A2, National Committee for Clinical Laboratory Standards, Villanova, Pa].
(§2) An inoculum level of 5×10^5 CFU/mL, and a range of antibiotic concentrations (64-0.06 μg/mL) is used. […] The test organisms include a spectrum of Gram-positive bacteria comprised of Staphylococcus sp., Streptococcus sp. and Enterococcus sp. These organisms include recent clinical isolates that are resistant to methicillin, penicillin and/or vancomycin.

Enterococcus sp. = conditions: broth dilution, 5×10^5 CFU/mL, 18 hours at 35° C.
Description: as §1, §2

Escherichia coli = conditions: 5×10^5 CFU/mL, 18 hours at 35° C.
Description: as §1, §2

Streptococcus sp. = conditions: broth dilution, 5×10^5 CFU/mL, 18 hours at 35° C.
Description: as §1, §2

[1] = broth dilution, 5×10^5 CFU/mL, 18 hours at 35° C.
[2] = broth dilution, 18 hours at 35° C.
[3] = strain GC 4543, broth dilution, 18 hours at 35° C.
[4] = strain GC 4546, broth dilution, 18 hours at 35° C.
[5] = strain GC 4547, broth dilution, 18 hours at 35° C.
[6] = strain GC 4548, broth dilution, 18 hours at 35° C.
[7] = strain GC 4549, broth dilution, 18 hours at 35° C.
[8] = strain GC 4551, broth dilution, 18 hours at 35° C.

MIC Coagulase Negative Staphylococcus (GC 4547) (Staphylococcus sp.; [1]): 4 µg/mL (≈ 2.77 µM)
MIC Coagulase Negative Staphylococcus (GC 4548) (Staphylococcus sp.; [1]): 2 µg/mL (≈ 1.39 µM)
MIC Coagulase Negative Staphylococcus (GC 4549) (Staphylococcus sp.; [1]): 1 µg/mL (≈ 0.694 µM)
MIC Coagulase Negative Staphylococcus (GC 4551) (Staphylococcus sp.; [1]): 2 µg/mL (≈ 1.39 µM)
MIC Staphylococcus aureus-SMITH (GC 4543) (Staphylococcus sp.; [1]): 2 µg/mL (≈ 1.39 µM)
MIC Staphylococcus aureus (ATCC 29213) (Staphylococcus sp.): 2 µg/mL (≈ 1.39 µM)
MIC Staphylococcus aureus (ATCC 29213) (Staphylococcus sp.; [2]): 2 µg/mL (≈ 1.39 µM)
MIC Staphylococcus aureus (GC 1131) (Staphylococcus sp.): 4 µg/mL (≈ 2.77 µM)
MIC Staphylococcus aureus (GC 1131) (Staphylococcus sp.; [2]): 4 µg/mL (≈ 2.77 µM)
MIC Staphylococcus aureus (GC 3051) (Staphylococcus sp.): 2 µg/mL (≈ 1.39 µM)
MIC Staphylococcus aureus (GC 3051) (Staphylococcus sp.; [2]): 2 µg/mL (≈ 1.39 µM)
MIC Staphylococcus aureus (GC 3053) (Staphylococcus sp.): 2 µg/mL (≈ 1.39 µM)
MIC Staphylococcus aureus (GC 3053) (Staphylococcus sp.; [2]): 2 µg/mL (≈ 1.39 µM)
MIC Staphylococcus aureus (GC 4541) (Staphylococcus sp.): 4 µg/mL (≈ 2.77 µM)
MIC Staphylococcus aureus (GC 4541) (Staphylococcus sp.; [2]): 4 µg/mL (≈ 2.77 µM)
MIC Staphylococcus aureus (GC 4542) (Staphylococcus sp.): 2 µg/mL (≈ 1.39 µM)
MIC Staphylococcus aureus (GC 4542) (Staphylococcus sp.; [2]): 2 µg/mL (≈ 1.39 µM)
MIC Staphylococcus aureus-SMITH (GC 4543) (Staphylococcus sp.; [3]): 2 µg/mL (≈ 1.39 µM)
MIC Staphylococcus aureus (GC 4544) (Staphylococcus sp.): 4 µg/mL (≈ 2.77 µM)
MIC Staphylococcus aureus (GC 4544) (Staphylococcus sp.; [2]): 4 µg/mL (≈ 2.77 µM)
MIC Staphylococcus aureus (GC 4545) (Staphylococcus sp.): 2 µg/mL (≈ 1.39 µM)
MIC Staphylococcus aureus (GC 4545) (Staphylococcus sp.; [2]): 2 µg/mL (≈ 1.39 µM)
MIC Coagulase Negative Staphylococcus (GC 4547) (Staphylococcus sp.; [5]): 4 µg/mL (≈ 2.77 µM)
MIC Coagulase Negative Staphylococcus (GC 4548) (Staphylococcus sp.; [6]): 2 µg/mL (≈ 1.39 µM)
MIC Coagulase Negative Staphylococcus (GC 4549) (Staphylococcus sp.; [7]): 1 µg/mL (≈ 0.694 µM)
MIC Coagulase Negative Staphylococcus (GC 4551) (Staphylococcus sp.; [8]): 2 µg/mL (≈ 1.39 µM)
MIC Enterococccus avium (GC 4558) (Enterococcus sp.): 2 µg/mL (≈ 1.39 µM)
MIC Enterococccus faecalis (ATCC 29212) (Enterococcus sp.): 2 µg/mL (≈ 1.39 µM)
MIC Enterococccus faecalis (GC 2691) (Enterococcus sp.): 4 µg/mL (≈ 2.77 µM)
MIC Enterococccus faecalis (GC 3059) (Enterococcus sp.): 2 µg/mL (≈ 1.39 µM)
MIC Enterococccus faecalis (GC 4552) (Enterococcus sp.): 4 µg/mL (≈ 2.77 µM)
MIC Enterococccus faecalis (GC 4553) (Enterococcus sp.): 4 µg/mL (≈ 2.77 µM)
MIC Enterococccus faecalis (GC 4554) (Enterococcus sp.): 4 µg/mL (≈ 2.77 µM)
MIC Enterococccus faecalis (GC 6189) (Enterococcus sp.): 2 µg/mL (≈ 1.39 µM)
MIC Enterococccus faecium (GC 2243) (Enterococcus sp.): 4 µg/mL (≈ 2.77 µM)
MIC Enterococccus faecium (GC 4556) (Enterococcus sp.): 4 µg/mL (≈ 2.77 µM)
MIC Enterococccus faecium (GC 4557) (Enterococcus sp.): 4 µg/mL (≈ 2.77 µM)
MIC Enterococcus faecalis (GC 2242) (Enterococcus sp.): 4 µg/mL (≈ 2.77 µM)
MIC Escherichia coli (ATCC 25922) (Escherichia coli): 64 µg/mL (≈ 44.4 µM)
MIC Escherichia coli (GC 4559) (Escherichia coli): 64 µg/mL (≈ 44.4 µM)
MIC Escherichia coli (GC 4560) (Escherichia coli): 4 µg/mL (≈ 2.77 µM)
MIC Streptococcus agalactiae (GC 4564) (Streptococcus sp.): <0.12 µg/mL
MIC Streptococcus pneumoniae (GC 1894) (Streptococcus sp.): <0.12 µg/mL
MIC Streptococcus pneumoniae (GC 4565) (Streptococcus sp.): <0.12 µg/mL
MIC Streptococcus pneumonine (ATCC 6301) (Streptococcus sp.): <0.12 µg/mL
MIC Streptococcus pyogenes (GC 4563) (Streptococcus sp.): 0.25 µg/mL (≈ 0.173 µM)
SMILES: CC(c1ccccc1)C1NC(=O)CNC(=O)C(CO)NC(=O)C(C(O)C2CNC(=N)N2C2OC(CO)C(O)C(O)C2O)NC(=O)C(C(O)C2CNC(=N)N2)NC(=O)C(Cc2ccc(OC3OC(CO)C(OC4OC5COC(C67CC8CC(CC(C8)C6)C7)OC5C(O)C4O)C(O)C3O)cc2)NC1=O (centres unmarked) [Example 127]
MIC Staphylococcus haemolyticus (GC 4546) (Staphylococcus sp.; [1]): 2 µg/mL (≈ 1.39 µM)
MIC Staphylococcus haemolyticus (GC 4546) (Staphylococcus sp.; [4]): 2 µg/mL (≈ 1.39 µM)

MIC Coagulase Negative Staphylococcus (GC 4547) (Staphylococcus sp.; [1]): 4 µg/mL (≈ 2.75 µM)
MIC Coagulase Negative Staphylococcus (GC 4548) (Staphylococcus sp.; [1]): 2 µg/mL (≈ 1.37 µM)
MIC Coagulase Negative Staphylococcus (GC 4549) (Staphylococcus sp.; [1]): 2 µg/mL (≈ 1.37 µM)
MIC Coagulase Negative Staphylococcus (GC 4551) (Staphylococcus sp.; [1]): 4 µg/mL (≈ 2.75 µM)
MIC Coagulase Negative Staphylococcus (GC 6257) (Staphylococcus sp.; [1]): 2 µg/mL (≈ 1.37 µM)
MIC Staphylococcus aureus-SMITH (GC 4543) (Staphylococcus sp.; [1]): 2 µg/mL (≈ 1.37 µM)
MIC Staphylococcus aureus (ATCC 29213) (Staphylococcus sp.): 2 µg/mL (≈ 1.37 µM)
MIC Staphylococcus aureus (ATCC 29213) (Staphylococcus sp.; [2]): 2 µg/mL (≈ 1.37 µM)
MIC Staphylococcus aureus (GC 1131) (Staphylococcus sp.): 4 µg/mL (≈ 2.75 µM)
MIC Staphylococcus aureus (GC 1131) (Staphylococcus sp.; [2]): 4 µg/mL (≈ 2.75 µM)
MIC Staphylococcus aureus (GC 3051) (Staphylococcus sp.): 2 µg/mL (≈ 1.37 µM)
MIC Staphylococcus aureus (GC 3051) (Staphylococcus sp.; [2]): 2 µg/mL (≈ 1.37 µM)
MIC Staphylococcus aureus (GC 3053) (Staphylococcus sp.): 2 µg/mL (≈ 1.37 µM)
MIC Staphylococcus aureus (GC 3053) (Staphylococcus sp.; [2]): 2 µg/mL (≈ 1.37 µM)
MIC Staphylococcus aureus (GC 4541) (Staphylococcus sp.): 2 µg/mL (≈ 1.37 µM)
MIC Staphylococcus aureus (GC 4541) (Staphylococcus sp.; [2]): 2 µg/mL (≈ 1.37 µM)
MIC Staphylococcus aureus (GC 4542) (Staphylococcus sp.): 2 µg/mL (≈ 1.37 µM)
MIC Staphylococcus aureus (GC 4542) (Staphylococcus sp.; [2]): 2 µg/mL (≈ 1.37 µM)
MIC Staphylococcus aureus-SMITH (GC 4543) (Staphylococcus sp.; [3]): 2 µg/mL (≈ 1.37 µM)
MIC Staphylococcus aureus (GC 4544) (Staphylococcus sp.): 4 µg/mL (≈ 2.75 µM)
MIC Staphylococcus aureus (GC 4544) (Staphylococcus sp.; [2]): 4 µg/mL (≈ 2.75 µM)
MIC Staphylococcus aureus (GC 4545) (Staphylococcus sp.): 2 µg/mL (≈ 1.37 µM)
MIC Staphylococcus aureus (GC 4545) (Staphylococcus sp.; [2]): 2 µg/mL (≈ 1.37 µM)
MIC Coagulase Negative Staphylococcus (GC 4547) (Staphylococcus sp.; [5]): 4 µg/mL (≈ 2.75 µM)
MIC Coagulase Negative Staphylococcus (GC 4548) (Staphylococcus sp.; [6]): 2 µg/mL (≈ 1.37 µM)
MIC Coagulase Negative Staphylococcus (GC 4549) (Staphylococcus sp.; [7]): 2 µg/mL (≈ 1.37 µM)
MIC Coagulase Negative Staphylococcus (GC 4551) (Staphylococcus sp.; [8]): 4 µg/mL (≈ 2.75 µM)
MIC Coagulase Negative Staphylococcus (GC 6257) (Staphylococcus sp.; strain GC 6257, broth dilution, 18 hours at 35° C.): 2 µg/mL (≈ 1.37 µM)
MIC Enterococccus avium (GC 4558) (Enterococcus sp.): 4 µg/mL (≈ 2.75 µM)
MIC Enterococccus faecalis (ATCC 29212) (Enterococcus sp.): 4 µg/mL (≈ 2.75 µM)
MIC Enterococccus faecalis (GC 2691) (Enterococcus sp.): 4 µg/mL (≈ 2.75 µM)
MIC Enterococccus faecalis (GC 3059) (Enterococcus sp.): 4 µg/mL (≈ 2.75 µM)
MIC Enterococccus faecalis (GC 4552) (Enterococcus sp.): 4 µg/mL (≈ 2.75 µM)
MIC Enterococccus faecalis (GC 4553) (Enterococcus sp.): 4 µg/mL (≈ 2.75 µM)
MIC Enterococccus faecalis (GC 4554) (Enterococcus sp.): 4 µg/mL (≈ 2.75 µM)
MIC Enterococccus faecalis (GC 6189) (Enterococcus sp.): 4 µg/mL (≈ 2.75 µM)
MIC Enterococccus faecium (GC 2243) (Enterococcus sp.): 4 µg/mL (≈ 2.75 µM)
MIC Enterococccus faecium (GC 4556) (Enterococcus sp.): 4 µg/mL (≈ 2.75 µM)
MIC Enterococccus faecium (GC 4557) (Enterococcus sp.): 4 µg/mL (≈ 2.75 µM)
MIC Enterococcus faecalis (GC 2242) (Enterococcus sp.): 4 µg/mL (≈ 2.75 µM)
MIC Escherichia coli (ATCC 25922) (Escherichia coli): 32 µg/mL (≈ 22 µM)
MIC Escherichia coli (GC 4559) (Escherichia coli): 32 µg/mL (≈ 22 µM)
MIC Escherichia coli (GC 4560) (Escherichia coli): 4 µg/mL (≈ 2.75 µM)
MIC Streptococcus agalactiae (GC 4564) (Streptococcus sp.): 0.25 µg/mL (≈ 0.172 µM)
MIC Streptococcus pneumoniae (GC 1894) (Streptococcus sp.): <0.06 µg/mL
MIC Streptococcus pneumoniae (GC 4565) (Streptococcus sp.): 0.12 µg/mL (≈ 0.0824 µM)
MIC Streptococcus pneumonine (ATCC 6301) (Streptococcus sp.): 0.25 µg/mL (≈ 0.172 µM)
MIC Streptococcus pyogenes (GC 4563) (Streptococcus sp.): 0.5 µg/mL (≈ 0.344 µM)
SMILES: CC(c1ccccc1)C1NC(=O)CNC(=O)C(CO)NC(=O)C(C(O)C2CNC(=N)N2C2OC(CO)C(O)C(O)C2O)NC(=O)C(C(O)C2CNC(=N)N2)NC(=O)C(Cc2ccc(OC3OC(CO)C(OC4OC(CO)C(O)C5OC(CC67CC8CC(CC(C8)C6)C7)OC45)C(O)C3O)cc2)NC1=O (centres unmarked) [Example 128]
MIC Staphylococcus haemolyticus (GC 4546) (Staphylococcus sp.; [1]): 2 µg/mL (≈ 1.37 µM)
MIC Staphylococcus haemolyticus (GC 4546) (Staphylococcus sp.; [4]): 2 µg/mL (≈ 1.37 µM)
